System: spontaneously hypertensive rats
Experiment: Antihypertensive action (systolic blood pressure, caudal artery) in male spontaneously hypertensive rats
Type: in vivo, rat
Settings: 10 mg/kg oral; for Change in blood pressure 1 hr. after treatment / Change in blood pressure 5 hrs. after treatment: after minus before medication, * P < 0.05 vs control; for Duration of antihypertensive effect: measured 1, 5, 8 and 24 hours after administration
Protocol: Male spontaneously hypertensive rats aged 10 to 11 weeks were used (in groups of 3 to 6 individuals). […] Each test compound was suspended in a 5% solution of gum arabic and orally administered. The dosage was 10 mg/kg for all compounds. Animals in a control group was given the above solution of gum arabic only.

| Compound | Change in blood pressure 1 hr. after treatment | Change in blood pressure 5 hrs. after treatment | Duration of antihypertensive effect |
| --- | --- | --- | --- |
| 2-[4-(4-fluorophenyl)-1-piperazinyl]ethyl methyl 4-(3-chlorophenyl)-2,6-dimethyl-1,4-dihydropyridine-3,5-dicarboxylate [Example 42] | -25 mmHg | -35 mmHg | 8 to 24 h |
| CCOC(=O)C1=C(C)NC(C)=C(C(=O)OCCN2CCN(C(c3ccccc3)c3ccccc3)CC2)C1c1cccc([N+](=O)[O-])c1 (stereo not drawn) [Example 2, 2-(4-benzhydryl-1-piperazinyl)ethyl ethyl 2,6-dimethyl-4-(3-nitrophenyl)-1,4-dihydropyridine-3,5-dicarboxylate] | -99 mmHg | -101 mmHg | 8 to 24 h |
| CCOC(=O)C1=C(C)NC(C)=C(C(=O)OCCN2CCN(C(c3ccccc3)c3ccccc3)CC2)C1c1cccc(Cl)c1Cl (stereo not drawn) [Example 7, 2-(4-benzhydryl-1-piperazinyl)ethyl ethyl 4-(2,3-dichlorophenyl)-2,6-dimethyl-1,4-dihydropyridine-3,5-dicarboxylate] | -59 mmHg | -79 mmHg | > 24 h |
| COC(=O)C1=C(C)NC(C)=C(C(=O)OCCN2CCN(C(c3ccc(C)cc3)c3ccc(C)cc3)CC2)C1c1cccc([N+](=O)[O-])c1 (stereo not drawn) [Example 9, 2-[4-(4,4'-dimethylbenzhydryl)-1-piperazinyl]ethyl methyl 2,6-dimethyl-4-(3-nitrophenyl)-1,4-dihydropyridine-3,5-dicarboxylate] | -96 mmHg | -98 mmHg | > 24 h |
| COC(=O)C1=C(C)NC(C)=C(C(=O)OCCN2CCN(C(c3ccc(Cl)cc3)c3ccc(Cl)cc3)CC2)C1c1cccc([N+](=O)[O-])c1 (stereo not drawn) [Example 12, 2-[4-(4,4'-dichlorobenzhydryl)-1-piperazinyl]ethyl methyl 2,6-dimethyl-4-(3-nitrophenyl)-1,4-dihydropyridine-3,5-dicarboxylate] | -85 mmHg | -87 mmHg | > 24 h |
| COC(=O)C1=C(C)NC(C)=C(C(=O)OCCN2CCN(C(c3ccc(F)cc3)c3ccc(F)cc3)CC2)C1c1cccc(Cl)c1Cl (stereo not drawn) [Example 13, 2-[4-(4,4'-difluorobenzhydryl)-1-piperazinyl]ethyl methyl 4-(2,3-dichlorophenyl)-2,6-dimethyl-1,4-dihydropyridine-3,5-dicarboxylate] | -34 mmHg | -31 mmHg | 8 to 24 h |
| COC(=O)C1=C(C)NC(C)=C(C(=O)OCCN2CCN(c3ccc(F)cc3)CC2)C1c1cccc([N+](=O)[O-])c1.Cl (stereo not drawn) [Example 16, 2-[4-(4-fluorophenyl)-1-piperazinyl]ethyl methyl 2,6-dimethyl-4-(3-nitrophenyl)-1,4-dihydropyridine-3,5-dicarboxylate hydrochloride] | -51 mmHg | -45 mmHg | 8 to 24 h |
| COC(=O)C1=C(C)NC(C)=C(C(=O)OCCN2CCN(c3cccc(Cl)c3)CC2)C1c1cccc([N+](=O)[O-])c1 (stereo not drawn) [Example 17, 2-[4-(3-chlorophenyl)-1-piperazinyl]ethyl methyl 2,6-dimethyl-4-(3-nitrophenyl)-1,4-dihydropyridine-3,5-dicarboxylate] | -77 mmHg | -46 mmHg | 8 to 24 h |
